{"source": "patent US3969529A", "about": "“Phenoxyacetic acid derivatives as diuretic agents” (C.E.R.P.H.A., priority 1969, dated 1976)", "key": {"mice": {"test_system": "mice", "test": "Diuretic activity in mice", "assay_type": "in vivo", "procedure": "The three compounds CE 3598, CE 3624, CE 3649 can be shown to be diuretic at doses of from 1 - 50 mg/kg for the first."}, "dogs": {"test_system": "dogs", "test": "Tolerance in dogs, 5 days", "assay_type": "in vivo", "conditions": "50 to 200 mg/kg via the digestive tract, three dogs"}, "non-anaesthetized dogs": {"test_system": "non-anaesthetized dogs", "test": "Diuretic activity in non-anaesthetized dogs after hydration", "assay_type": "in vivo", "procedure": "After hydration with 500 ml physiological water and calculation of the diuresis for 2 hours, CE 3624, CE 3649 and CE 3598 were administered per os at doses of from 10 to 100 mg/kg.\nFor CE 3624 at 20 mg/kg, the diuresis was quintupled for 3 hours; the same result was obtained at 10 mg/kg. For CE 3649, at the same doses, the diuresis was only doubled. The doses of CE 3598 administered per os were 25,50 and 100 mg/kg. The increase in diuresis was effective during the first hour, and still notable 3 hours after administration of the product."}, "[1]": {"test": "Acute toxicity in mice (mortality after 24 h intravenous, 48 h per os)", "conditions": "mouse, in vivo; for LD50 at 24 h: intravenous, mortality after 24 hours; for LD50 at 48 h: po, per os, mortality after 48 hours", "procedure": "The three compounds were administered in the usual way to lots of 10 male mice of average weight 20 gm. Mortality was assessed after 24 hours for the intravenous toxicity and after 48 hours for toxicity per os."}, "[2]": {"test_system": "dogs anaesthetized with mebubarbital", "test": "Diuretic activity in dogs anaesthetized with mebubarbital", "assay_type": "in vivo", "procedure": "The doses injected were of the order of 5 - 30 mg/kg. In most cases, diuresis was decupled for more than 2 hours.\nThe size of the increase may reach 6 to 7 times, even 10 times, the base diuresis.\nIn the case of intraduodenal injection or administration per os, the active doses are relatively the same as by intravenous administration."}, "[3]": {"conditions": "per os, 10 to 100 mg/kg, after hydration with 500 ml physiological water"}}}
{"compound": "Cc1ccc(C(=O)c2ccc(OCC(=O)O)c(Cl)c2Cl)s1", "note": "[CE 3649, 4-[2(5-methylthienyl)keto] 2,3-dichloro phenoxyacetic acid]", "values": [{"measurement": "diuretic activity", "setting": "mice", "result": "diuretic"}, {"measurement": "diuretic activity relative to CE 3624", "setting": "mice", "result": "a quarter of that of CE 3624"}, {"measurement": "symptoms indicating injurious activity", "setting": "dogs", "result": "no symptoms which would indicate any injurious activity"}, {"measurement": "increase in diuresis", "setting": "non-anaesthetized dogs; [3]", "result": "strongly increased"}, {"measurement": "increase in diuresis", "setting": "non-anaesthetized dogs; per os, same doses as CE 3624 (20 and 10 mg/kg)", "result": "only doubled"}, {"measurement": "LD50 at 24 h", "setting": "[1]", "result": 580, "unit": "mg/kg"}, {"measurement": "LD50 at 48 h", "setting": "[1]", "result": 2900, "unit": "mg/kg"}]}
{"compound": "O=C(O)COc1ccc(C(=O)c2ccco2)c(Cl)c1Cl", "note": "[CE 3598, 4-(2-furylketo) 2,3-dichloro phenoxyacetic acid]", "values": [{"measurement": "increase in diuresis 2 hours after injection", "setting": "[2]; intravenous", "result": "still perceptible"}, {"measurement": "dose provoking substantial diuretic action", "setting": "[2]; intravenous, first 15 minutes", "result": "~10", "unit": "mg/kg"}, {"measurement": "size of the increase over base diuresis, maximum", "setting": "[2]; intravenous, may reach even", "result": 10, "unit": "times"}, {"measurement": "diuretic action in the first 15 minutes", "setting": "[2]; intravenous, of the order of 10 mg/kg", "result": "substantial diuretic action"}, {"measurement": "diuretic activity", "setting": "mice", "result": "diuretic"}, {"measurement": "symptoms indicating injurious activity", "setting": "dogs", "result": "no symptoms which would indicate any injurious activity"}, {"measurement": "increase in diuresis", "setting": "non-anaesthetized dogs; [3]", "result": "strongly increased"}, {"measurement": "increase in diuresis 3 hours after administration", "setting": "non-anaesthetized dogs; per os, 25, 50 and 100 mg/kg", "result": "still notable"}, {"measurement": "increase in diuresis during the first hour", "setting": "non-anaesthetized dogs; per os, 25, 50 and 100 mg/kg", "result": "effective"}, {"measurement": "LD50 at 24 h", "setting": "[1]", "result": 450, "unit": "mg/kg"}, {"measurement": "LD50 at 48 h", "setting": "[1]", "result": 1500, "unit": "mg/kg"}]}
{"compound": "O=C(O)COc1ccc(C(=O)c2cccs2)c(Cl)c1Cl", "note": "[CE 3624, 4-(2-thienylketo) 2,3-dichloro phenoxyacetic acid]", "values": [{"measurement": "diuretic action", "setting": "[2]; injected, of the order of 5 - 30 mg/kg", "result": "extremely substantial and precocious"}, {"measurement": "duration of decupled diuresis", "setting": "[2]; injected, of the order of 5 - 30 mg/kg, in most cases", "result": "more than 2 hours"}, {"measurement": "increase in diuresis", "setting": "[2]; injected, of the order of 5 - 30 mg/kg, in most cases, for more than 2 hours", "result": "decupled"}, {"measurement": "diuretic activity", "setting": "mice", "result": "diuretic"}, {"measurement": "increase in diuresis", "setting": "mice; 25 mg/kg", "result": "doubled"}, {"measurement": "increase in diuresis", "setting": "mice; 50 mg/kg", "result": "quintupled"}, {"measurement": "symptoms indicating injurious activity", "setting": "dogs", "result": "no symptoms which would indicate any injurious activity"}, {"measurement": "increase in diuresis", "setting": "non-anaesthetized dogs; per os, 10 mg/kg", "result": "quintupled"}, {"measurement": "duration of quintupled diuresis", "setting": "non-anaesthetized dogs; per os, 20 mg/kg", "result": 3, "unit": "h"}, {"measurement": "increase in diuresis", "setting": "non-anaesthetized dogs; per os, 20 mg/kg, for 3 hours", "result": "quintupled"}, {"measurement": "increase in diuresis", "setting": "non-anaesthetized dogs; [3]", "result": "strongly increased"}, {"measurement": "LD50 at 24 h", "setting": "[1]", "result": 225, "unit": "mg/kg"}, {"measurement": "LD50 at 48 h", "setting": "[1]", "result": 1280, "unit": "mg/kg"}]}
